Laboratory results taken from ChEMBL document CHEMBL5380842, “Discovery of a Potent and Selective CCR8 Small Molecular Antagonist IPG7236 for the Treatment of Cancer” (J Med Chem, 2023).

Tests used:
[1] = test system: MDA-MB-231; test: Antitumor activity against human MDA-MB-231 cells xenografted in humanized NCG mouse assessed as tumor growth inhibition at 50 mg/kg, IG bid measured after 22 days relative to control; assay type: functional; conditions: MDA-MB-231, po, 528 h, time 22 day, read-out: TGI
[2] = target: Voltage-gated inwardly rectifying potassium channel KCNH2 (Homo sapiens, UniProt Q12809); test: Inhibition of hERG; assay type: toxicity
Chain of Voltage-gated inwardly rectifying potassium channel KCNH2 (Q12809 whole entry): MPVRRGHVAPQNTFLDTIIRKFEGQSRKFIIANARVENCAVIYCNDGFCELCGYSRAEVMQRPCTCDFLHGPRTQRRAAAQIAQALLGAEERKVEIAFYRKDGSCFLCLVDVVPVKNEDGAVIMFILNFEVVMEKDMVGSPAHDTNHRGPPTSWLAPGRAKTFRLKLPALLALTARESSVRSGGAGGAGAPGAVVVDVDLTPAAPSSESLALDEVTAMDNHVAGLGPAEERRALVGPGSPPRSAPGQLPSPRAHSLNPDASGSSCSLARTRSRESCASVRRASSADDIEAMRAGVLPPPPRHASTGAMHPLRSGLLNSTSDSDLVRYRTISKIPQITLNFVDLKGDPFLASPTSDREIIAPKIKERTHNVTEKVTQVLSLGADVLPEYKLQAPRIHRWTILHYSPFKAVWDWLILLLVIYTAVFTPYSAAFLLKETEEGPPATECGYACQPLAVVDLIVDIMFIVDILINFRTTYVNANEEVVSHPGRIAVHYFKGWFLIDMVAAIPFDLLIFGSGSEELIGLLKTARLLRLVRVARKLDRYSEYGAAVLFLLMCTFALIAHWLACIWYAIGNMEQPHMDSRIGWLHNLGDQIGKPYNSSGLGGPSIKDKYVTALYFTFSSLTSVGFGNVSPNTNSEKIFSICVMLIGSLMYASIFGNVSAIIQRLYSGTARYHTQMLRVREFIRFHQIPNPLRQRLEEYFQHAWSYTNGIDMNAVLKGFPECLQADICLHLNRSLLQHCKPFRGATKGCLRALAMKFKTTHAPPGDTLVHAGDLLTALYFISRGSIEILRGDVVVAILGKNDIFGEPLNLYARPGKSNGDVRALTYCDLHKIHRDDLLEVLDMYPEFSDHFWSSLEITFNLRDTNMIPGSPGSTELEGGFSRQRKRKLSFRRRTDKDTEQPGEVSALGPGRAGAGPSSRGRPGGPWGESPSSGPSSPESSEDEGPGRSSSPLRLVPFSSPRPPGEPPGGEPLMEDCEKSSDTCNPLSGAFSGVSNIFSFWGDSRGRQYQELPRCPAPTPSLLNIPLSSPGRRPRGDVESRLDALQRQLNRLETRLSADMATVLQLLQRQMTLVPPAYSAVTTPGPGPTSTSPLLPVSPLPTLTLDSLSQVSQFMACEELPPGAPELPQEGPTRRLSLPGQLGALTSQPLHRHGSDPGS

[3] = test system: MDA-MB-231; test: Synergistic antitumor activity against human MDA-MB-231 cells xenografted in humanized NCG mouse assessed as tumor growth inhibition at 10 mg/kg, po bid in presence of PD-1 antibody relative to control; assay type: functional; conditions: read-out: TGI
[4] = Tmax in Beagle dog at 10 mg/kg, po; assay type: ADME, organism-based, Canis lupus familiaris; conditions: in vivo
[5] = Tmax in Cynomolgous monkey at 50 mg/kg, po; assay type: ADME, organism-based, Macaca fascicularis; conditions: cynomolgus monkey, in vivo
[6] = target: T1, Cytochrome P450 2C8 (Homo sapiens, UniProt P10632); test: Inhibition of CYP2C8 (unknown origin); assay type: ADME
T1 sequence (P10632 whole entry): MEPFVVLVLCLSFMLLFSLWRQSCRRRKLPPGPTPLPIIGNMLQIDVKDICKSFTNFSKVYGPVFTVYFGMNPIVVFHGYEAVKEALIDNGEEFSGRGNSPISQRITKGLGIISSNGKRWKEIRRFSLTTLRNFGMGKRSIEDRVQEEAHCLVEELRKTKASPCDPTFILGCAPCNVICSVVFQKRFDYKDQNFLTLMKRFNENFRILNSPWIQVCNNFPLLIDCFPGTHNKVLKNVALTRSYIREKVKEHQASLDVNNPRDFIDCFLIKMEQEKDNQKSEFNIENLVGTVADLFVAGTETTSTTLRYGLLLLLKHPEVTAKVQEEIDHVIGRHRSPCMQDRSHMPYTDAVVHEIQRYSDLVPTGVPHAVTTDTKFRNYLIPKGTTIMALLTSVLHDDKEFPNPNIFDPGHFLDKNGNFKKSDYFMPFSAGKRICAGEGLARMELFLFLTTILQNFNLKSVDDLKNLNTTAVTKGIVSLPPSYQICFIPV

[7] = Stability in mouse liver microsomes assessed as half life; assay type: ADME, Microsome
[8] = test system: MDA-MB-231; test: Antitumor activity against human MDA-MB-231 cells xenografted in humanized NCG mouse assessed as tumor growth inhibition at 10 mg/kg, IG bid measured after 22 days relative to control; assay type: functional; conditions: MDA-MB-231, po, 528 h, time 22 day, read-out: TGI
[9] = Tmax in ICR mouse at 50 mg/kg, po; assay type: ADME, organism-based; conditions: in vivo
[10] = Apparent permeability of compound across apical to basal side in human Caco2 cells at 10 uM incubated for 120 mins by LC-MS/MS analysis; conditions: Caco-2
[11] = AUClast in Beagle dog at 3 mg/kg, iv; assay type: ADME, organism-based, Canis lupus familiaris; parameters: dose 3 mg/kg, route iv; conditions: in vivo
[12] = AUClast in ICR mouse at 1 mg/kg, iv; assay type: ADME, organism-based; parameters: dose 1 mg/kg, route iv; conditions: in vivo
[13] = Volume of distribution at steady state in Sprague-Dawley rat at 1 mg/kg, iv; assay type: ADME, organism-based; conditions: in vivo, read-out: Vdss
[14] = Oral bioavailability in Beagle dog at 10 mg/kg; assay type: ADME, organism-based, Canis lupus familiaris; conditions: in vivo
[15] = Clearance in Sprague-Dawley rat at 1 mg/kg, iv; assay type: ADME, organism-based; conditions: in vivo
[16] = Oral bioavailability in ICR mouse at 50 mg/kg; assay type: ADME, organism-based; conditions: in vivo
[17] = target: T2, Cytochrome P450 1A2 (Homo sapiens, UniProt P05177); test: Inhibition of CYP1A2 (unknown origin); assay type: ADME
T2 sequence (P05177 whole entry): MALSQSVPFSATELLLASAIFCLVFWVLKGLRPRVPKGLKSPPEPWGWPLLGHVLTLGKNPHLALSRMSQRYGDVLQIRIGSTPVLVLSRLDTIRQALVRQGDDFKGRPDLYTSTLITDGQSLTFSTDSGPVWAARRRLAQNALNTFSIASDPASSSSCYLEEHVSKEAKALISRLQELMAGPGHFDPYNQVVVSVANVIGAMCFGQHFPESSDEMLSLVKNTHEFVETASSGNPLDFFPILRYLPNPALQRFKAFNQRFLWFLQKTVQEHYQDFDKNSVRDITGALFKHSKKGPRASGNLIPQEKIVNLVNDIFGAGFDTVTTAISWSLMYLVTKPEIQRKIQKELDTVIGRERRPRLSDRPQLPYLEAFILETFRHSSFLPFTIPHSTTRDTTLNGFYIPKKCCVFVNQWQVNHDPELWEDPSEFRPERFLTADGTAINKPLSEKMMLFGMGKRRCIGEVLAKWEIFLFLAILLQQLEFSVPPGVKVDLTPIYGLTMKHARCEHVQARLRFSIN

[18] = AUClast in ICR mouse at 50 mg/kg, po; assay type: ADME, organism-based; parameters: dose 50 mg/kg, route po; conditions: in vivo
[19] = Volume of distribution at steady state in Beagle dog at 3 mg/kg, iv; assay type: ADME, organism-based, Canis lupus familiaris; conditions: in vivo, read-out: Vdss
[20] = Cytotoxicity against human primary hepatocytes; assay type: toxicity, cell-based, Hepatocyte
[21] = AUClast in Sprague-Dawley rat at 1 mg/kg, iv; assay type: ADME, organism-based; parameters: dose 1 mg/kg, route iv; conditions: in vivo
[22] = AUClast in Beagle dog at 10 mg/kg, po; assay type: ADME, organism-based, Canis lupus familiaris; parameters: dose 10 mg/kg, route po; conditions: in vivo
[23] = Tmax in Sprague-Dawley rat at 50 mg/kg, po; assay type: ADME, organism-based; conditions: in vivo
[24] = Volume of distribution at steady state in ICR mouse at 1 mg/kg, iv; assay type: ADME, organism-based; conditions: in vivo, read-out: Vdss
[25] = Clearance in Beagle dog at 3 mg/kg, iv; assay type: ADME, organism-based, Canis lupus familiaris; conditions: in vivo
[26] = target: Cytochrome P450 2C19 (Homo sapiens, UniProt P33261); test: Inhibition of CYP2C19 (unknown origin); assay type: ADME
Chain of Cytochrome P450 2C19 (P33261 whole entry): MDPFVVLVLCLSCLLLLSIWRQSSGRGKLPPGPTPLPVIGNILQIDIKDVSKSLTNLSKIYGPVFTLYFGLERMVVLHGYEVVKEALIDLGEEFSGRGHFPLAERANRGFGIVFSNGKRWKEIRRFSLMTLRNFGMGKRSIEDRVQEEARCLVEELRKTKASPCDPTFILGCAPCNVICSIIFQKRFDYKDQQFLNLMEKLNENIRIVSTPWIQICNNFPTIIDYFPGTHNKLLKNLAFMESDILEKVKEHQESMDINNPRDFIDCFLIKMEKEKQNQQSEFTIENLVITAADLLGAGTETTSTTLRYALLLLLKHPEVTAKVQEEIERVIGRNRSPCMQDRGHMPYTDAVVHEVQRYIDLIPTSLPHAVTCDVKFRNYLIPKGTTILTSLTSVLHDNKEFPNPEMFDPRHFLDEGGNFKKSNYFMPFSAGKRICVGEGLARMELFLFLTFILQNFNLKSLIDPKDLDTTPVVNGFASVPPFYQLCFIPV

[27] = target: T3, Cytochrome P450 3A4 (Homo sapiens, UniProt P08684); test: Inhibition of CYP3A4-M (unknown origin); assay type: ADME
T3 sequence (P08684 whole entry): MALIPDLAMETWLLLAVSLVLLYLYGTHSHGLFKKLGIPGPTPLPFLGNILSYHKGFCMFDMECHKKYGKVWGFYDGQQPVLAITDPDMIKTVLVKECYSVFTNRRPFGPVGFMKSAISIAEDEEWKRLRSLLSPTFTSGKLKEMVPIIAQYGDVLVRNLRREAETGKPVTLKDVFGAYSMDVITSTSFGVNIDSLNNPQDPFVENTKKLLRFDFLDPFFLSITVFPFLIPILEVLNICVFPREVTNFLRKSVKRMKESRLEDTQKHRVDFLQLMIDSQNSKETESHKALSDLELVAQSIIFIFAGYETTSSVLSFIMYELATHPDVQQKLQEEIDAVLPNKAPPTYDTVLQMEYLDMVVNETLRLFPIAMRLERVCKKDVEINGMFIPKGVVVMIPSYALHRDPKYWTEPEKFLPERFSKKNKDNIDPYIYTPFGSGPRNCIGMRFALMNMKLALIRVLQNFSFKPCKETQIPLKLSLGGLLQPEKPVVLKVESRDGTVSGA

[28] = Clearance in ICR mouse at 1 mg/kg, iv; assay type: ADME, organism-based; conditions: in vivo
[29] = Stability in dog liver microsomes assessed as half life; assay type: ADME, Canis lupus familiaris, Microsome
[30] = Volume of distribution at steady state in Cynomolgous monkey at 1 mg/kg, iv; assay type: ADME, organism-based, Macaca fascicularis; conditions: cynomolgus monkey, in vivo, read-out: Vdss
[31] = AUClast in Cynomolgous monkey at 1 mg/kg, iv; assay type: ADME, organism-based, Macaca fascicularis; parameters: dose 1 mg/kg, route iv; conditions: cynomolgus monkey, in vivo
[32] = test system: MDA-MB-231; test: Antitumor activity against human MDA-MB-231 cells xenografted in humanized NCG mouse assessed as tumor growth inhibition at 10 mg/kg, po bid relative to control; assay type: functional; conditions: read-out: TGI
[33] = target: T3, Cytochrome P450 3A4; test: Inhibition of CYP3A4-T (unknown origin); assay type: ADME

Tmax [4]: 30 min
Tmax [5]: 2.3 h
IC50 [6]: > 10 µM
half-life [7]: 26 min
Tmax [9]: 30 min
Papp A→B at 2 h, 10 µM [10]: 3.7 ×10⁻⁶ cm/s
AUC(0-t) [11]: 3550 ng·h/mL
AUC(0-t) [12]: 666 ng·h/mL
Vd [13]: 4.4 L/kg
bioavailability [14]: 55%
clearance [15]: 40.9 mL/min/kg
bioavailability [16]: 65%
IC50 [17]: > 10 µM
AUC(0-t) [18]: 22100 ng·h/mL
Vd [19]: 2.2 L/kg
AUC(0-t) [21]: 395 ng·h/mL
AUC(0-t) [22]: 6480 ng·h/mL
Tmax [23]: 3.3 h
Vd [24]: 2.2 L/kg
clearance [25]: 14.2 mL/min/kg
IC50 [26]: > 10 µM
IC50 [27]: > 10 µM
clearance [28]: 24.5 mL/min/kg
half-life [29]: 158 min
Vd [30]: 2.8 L/kg
AUC(0-t) [31]: 538 ng·h/mL
IC50 [33]: > 10 µM
SMILES: Cc1cc(S(=O)(=O)N[C@H](C)C2CCN(C)CC2)ccc1NC(=O)c1ccccc1C
inhibition in vivo at 50 mg/kg [1]: 55.6%
IC50 [2]: > 30 µM
inhibition in vivo at 10 mg/kg [3]: 73.8%
inhibition in vivo at 10 mg/kg [8]: 28.3%
IC50 [20]: > 150 µM
inhibition in vivo at 10 mg/kg [32]: 47.2%
